Test results taken from US9084735B2, “Self-assembling bis-urea compounds for drug delivery” (International Business Machines Corporation, priority 2013, dated 2015).

Columns and labels:
[1] = Zeta potential of cationic nanofibers before and after drug encapsulation (piperacillin); type: physicochemical; settings: for zeta potential of nanofibers after drug loading: after piperacillin loading; for zeta potential of nanofibers before drug loading: before piperacillin loading
From the text: The zeta potential of cationic nanofibers before and after drug encapsulation was investigated using the drug piperacillin and C-4 and C-14. […] The zeta potential values of nanofibers of C-14 before and after drug loading were 36.3 and 21.1 mV, respectively. The reduced zeta potential was attributed to the electrostatic interaction between cationic nanofiber and the drug. This proves the formation of a complex between cationic nanofiber and the drug.

[2] = Nanofiber morphology by TEM; type: physicochemical; settings: C-4 200 mg/L, C-14 80 mg/L
Description: The morphologies of the cationic compounds were analyzed by TEM (FEI Tecnai G^2 F20 electron microscope). Cationic compounds solution (5 microliters) were placed on a copper grid coated with carbon film and incubated for 1 minute. Phosphotungstic acid solution (0.1 w/v, 5 microliters) was applied and incubated for another minute. The extra sample on the grid was absorbed by filter paper. The samples were air-dried at room temperature. The TEM observations were carried out with an electron kinetic energy of 200 keV.
FIGS. 2A to 2C are transmission electron micrographs (TEM) of a cast film of the nanofibers formed with C-4 at different magnifications.

[3] = test system: S. aureus (ATCC No. 6538); experiment: MIC by broth microdilution (OD600 growth inhibition); type: cell-based, Staphylococcus aureus; settings: for growth inhibition of S. aureus by nanofibers alone (OD): blank nanofibers without drug
Description: The minimum inhibitory concentrations (MICs) of the penG-loaded nanofibers were measured using a broth microdilution method. First, penG-loaded nanofiber solutions were diluted to give final penG concentrations of 0.05, 0.1, 0.5, 1.0, 5.0 and 10.0 mg/L. S. aureus was grown in tryptic soy broth (TSB) at 37° C. with 300 rpm. The optical density (OD) of the S. aureus solution was adjusted to OD600 nm=0.1 by the addition of TSB. This S. aureus solution was further diluted 100 times (5.7×10^6 CFU/mL). The penG-loaded nanofiber solution (100 microliters) was transferred to each well of a 96 well plate (NUNC), followed by the addition of 100 microliters of the S. aureus solution. TSB was used as a control. The optical density readings of S. aureus solutions were monitored by measuring OD600 nm at predetermined times (0 hours and 18 hours). The assay was performed in four replicates for each sample and the experiments were repeated at least three times.

[4] = Critical micelle concentration of cationic compounds; type: physicochemical; settings: in water
[5] = Nanofiber dimensions by AFM; type: physicochemical; settings: film/solution on mica
Description: Atomic force microscopy (AFM) images were acquired on commercial instrumentation under fluid in intermittent contact (‘tapping’) mode at a 0.5 Hz scan rate with silicon on nitride cantilevers of spring constant about 0.35 N/m. For this study, images were collected over scan areas from 1×1 micrometer to 10×10 micrometers at 1024×1024 pixel resolution. Samples were prepared by depositing 60 microliters of polymer solution (at a concentration appropriate for imaging) in water on mica. The statistical mean height (zm) of the nanoparticles was obtained through Gwyddion software for particle analysis using height threshold algorithm.
The dry nanofiber AFM (FIG. 3A) and solution AFM (FIGS. 3B and 3C) of nanofibers formed with C-4 show anisotropic structures having considerably shorter lengths and an average diameter of 4 nm.

average fiber diameter (AFM) [5] | minimum concentration suppressing growth (MIC) ([3]; penG concentration, 18 hours, 5.7×10^6 CFU/mL, TSB) | SMILES | zeta potential of nanofibers after drug loading [1] | zeta potential of nanofibers before drug loading [1] | fiber length (TEM) [2] | growth inhibition of S. aureus by nanofibers alone (OD) [3] | CMC [4] | fiber diameter (TEM) [2]
4 nm |  | NCCCCNC(=O)Nc1ccc(CNC(=O)c2ccc(C(=O)NCc3ccc(NC(=O)NCCCCN)cc3)cc2)cc1 [Compound C-4] | 23.1 mV | 35.2 mV | several hundred | do not inhibit growth | 12 mg/L | 
 |  | NCc1ccc(CNC(=O)Nc2ccc(CNC(=O)c3ccc(C(=O)NCc4ccc(NC(=O)NCc5ccc(CN)cc5)cc4)cc3)cc2)cc1 [Compound C-14] | 21.1 mV | 36.3 mV | several hundred | do not inhibit growth | 20 mg/L | ~5 nm
 | 0.05 mg/L | CC1(C)S[C@@H]2[C@H](NC(=O)Cc3ccccc3)C(=O)N2[C@H]1C(=O)[O-].[K+] [penG, Penicillin G potassium salt, reference compound] |  |  |  |  |  | 
